PubChem BioAssay (NCI)
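GI50 marks 50% less growth. TGI denotes the concentration required for complete inhibition of growth.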

Tests used:
Assay in all cases: NCI-60 cell line screen, 384-well format
A549 NSCLC = tested on: A549 NSCLC
OVCAR-4 ovarian = tested on: OVCAR-4 ovarian
MDA-MB-231 breast = tested on: MDA-MB-231 breast
SF-295 CNS = tested on: SF-295 CNS
SR leukemia = tested on: SR leukemia
OVCAR-5 ovarian = tested on: OVCAR-5 ovarian
HT29 colon = tested on: HT29 colon
RXF 393 renal = tested on: RXF 393 renal
SN12C renal = tested on: SN12C renal
MOLT-4 leukemia = tested on: MOLT-4 leukemia
M14 melanoma = tested on: M14 melanoma
A498 renal = tested on: A498 renal
MDA-MB-468 breast = tested on: MDA-MB-468 breast
SK-MEL-28 melanoma = tested on: SK-MEL-28 melanoma
SNB-75 CNS = tested on: SNB-75 CNS
HS 578T breast = tested on: HS 578T breast
SK-MEL-5 melanoma = tested on: SK-MEL-5 melanoma
HOP-92 NSCLC = tested on: HOP-92 NSCLC
SF-539 CNS = tested on: SF-539 CNS
MDA-MB-435 melanoma = tested on: MDA-MB-435 melanoma
SF-268 CNS = tested on: SF-268 CNS
BT-549 breast = tested on: BT-549 breast
COLO 205 colon = tested on: COLO 205 colon
LOX IMVI melanoma = tested on: LOX IMVI melanoma
OVCAR-8 ovarian = tested on: OVCAR-8 ovarian
NCI/ADR-RES ovarian = tested on: NCI/ADR-RES ovarian
KM12 colon = tested on: KM12 colon
NCI-H522 lung = tested on: NCI-H522 lung
ACHN renal = tested on: ACHN renal
T-47D breast = tested on: T-47D breast
NCI-H460 NSCLC = tested on: NCI-H460 NSCLC
NCI-H226 lung = tested on: NCI-H226 lung
SK-OV-3 ovarian = tested on: SK-OV-3 ovarian
DU-145 prostate = tested on: DU-145 prostate
OVCAR-3 ovarian = tested on: OVCAR-3 ovarian
HCT-15 colon = tested on: HCT-15 colon
MALME-3M melanoma = tested on: MALME-3M melanoma
NCI-H322M lung = tested on: NCI-H322M lung
TK-10 renal = tested on: TK-10 renal
MCF7 breast = tested on: MCF7 breast
HOP-62 NSCLC = tested on: HOP-62 NSCLC
EKVX NSCLC = tested on: EKVX NSCLC
UACC-257 melanoma = tested on: UACC-257 melanoma
NCI-H23 lung = tested on: NCI-H23 lung
IGROV1 ovarian = tested on: IGROV1 ovarian
U251 glioblastoma = tested on: U251 glioblastoma
CAKI-1 renal = tested on: CAKI-1 renal
SNB-19 CNS = tested on: SNB-19 CNS
HCC-2998 colon = tested on: HCC-2998 colon
UACC-62 melanoma = tested on: UACC-62 melanoma
PC-3 prostate = tested on: PC-3 prostate
HCT-116 colon = tested on: HCT-116 colon
HL-60(TB) leukemia = tested on: HL-60(TB) leukemia

Work on `O=C(NO)c1cnc(N2CCN(S(=O)(=O)c3ccc4ccccc4c3)CC2)nc1` yielded a GI50 (A549 NSCLC) of 69.2 nM, a TGI (A549 NSCLC) of 229 nM and a GI50 (OVCAR-4 ovarian) of 140 nM. It also gave a TGI (OVCAR-4 ovarian) of 327 nM, a GI50 (MDA-MB-231 breast) of 129 nM and a TGI (MDA-MB-231 breast) of 343 nM. The GI50 (SF-295 CNS) was 119 nM, the TGI (SF-295 CNS) was 249 nM and the GI50 (SR leukemia) was 13.5 nM. It also gave a TGI (SR leukemia) of 42.4 nM, a GI50 (OVCAR-5 ovarian) of 37 nM and a TGI (OVCAR-5 ovarian) of 137 nM. It also gave a GI50 (HT29 colon) of 61.1 nM, a TGI (HT29 colon) of 197 nM and a GI50 (RXF 393 renal) of 121 nM. For the same molecule, the TGI (RXF 393 renal) was 263 nM, the GI50 (SN12C renal) was 109 nM and the TGI (SN12C renal) was 233 nM. For the same molecule, the GI50 (MOLT-4 leukemia) was 18.1 nM, the TGI (MOLT-4 leukemia) was 32.4 nM and the GI50 (M14 melanoma) was 49.9 nM. It also gave a TGI (M14 melanoma) of 171 nM, a GI50 (A498 renal) of 69.7 nM and a TGI (A498 renal) of 205 nM. For the same molecule, the GI50 (MDA-MB-468 breast) was 68.4 nM, the TGI (MDA-MB-468 breast) was 384 nM and the GI50 (SK-MEL-28 melanoma) was 39.6 nM. It also gave a TGI (SK-MEL-28 melanoma) of 146 nM, a GI50 (SNB-75 CNS) of 166 nM and a TGI (SNB-75 CNS) of 1260 nM. It also gave a GI50 (HS 578T breast) of 86 nM, a TGI (HS 578T breast) of 219 nM and a GI50 (SK-MEL-5 melanoma) of 29.8 nM. For the same molecule, the TGI (SK-MEL-5 melanoma) was 61.2 nM, the GI50 (HOP-92 NSCLC) was 102 nM and the TGI (HOP-92 NSCLC) was 310 nM. For the same molecule, the GI50 (SF-539 CNS) was 82.4 nM, the TGI (SF-539 CNS) was 409 nM and the GI50 (MDA-MB-435 melanoma) was 125 nM. For the same molecule, the TGI (MDA-MB-435 melanoma) was 283 nM, the GI50 (SF-268 CNS) was 102 nM and the TGI (SF-268 CNS) was 246 nM. The GI50 (BT-549 breast) was 128 nM, the TGI (BT-549 breast) was 319 nM and the GI50 (COLO 205 colon) was 129 nM. The TGI (COLO 205 colon) was 263 nM, the GI50 (LOX IMVI melanoma) was 47.2 nM and the TGI (LOX IMVI melanoma) was 157 nM. For the same molecule, the GI50 (OVCAR-8 ovarian) was 19.2 nM, the TGI (OVCAR-8 ovarian) was 140 nM and the GI50 (NCI/ADR-RES ovarian) was 15.5 nM. It also gave a TGI (NCI/ADR-RES ovarian) of 42.3 nM, a GI50 (KM12 colon) of 113 nM and a TGI (KM12 colon) of 467 nM. It also gave a GI50 (NCI-H522 lung) of 40.7 nM, a TGI (NCI-H522 lung) of 163 nM and a GI50 (ACHN renal) of 139 nM. For the same molecule, the TGI (ACHN renal) was 294 nM, the GI50 (T-47D breast) was 38.9 nM and the TGI (T-47D breast) was 168 nM. It also gave a GI50 (NCI-H460 NSCLC) of 30.8 nM, a TGI (NCI-H460 NSCLC) of 138 nM and a GI50 (NCI-H226 lung) of 136 nM. The TGI (NCI-H226 lung) was 288 nM, the GI50 (SK-OV-3 ovarian) was 85.4 nM and the TGI (SK-OV-3 ovarian) was 237 nM. For the same molecule, the GI50 (DU-145 prostate) was 29.4 nM, the TGI (DU-145 prostate) was 95 nM and the GI50 (OVCAR-3 ovarian) was 89.6 nM. It also gave a TGI (OVCAR-3 ovarian) of 216 nM, a GI50 (HCT-15 colon) of 98.2 nM and a TGI (HCT-15 colon) of 272 nM. The GI50 (MALME-3M melanoma) was 25.8 nM, the TGI (MALME-3M melanoma) was 124 nM and the GI50 (NCI-H322M lung) was 79.2 nM. For the same molecule, the TGI (NCI-H322M lung) was 261 nM, the GI50 (TK-10 renal) was 64 nM and the TGI (TK-10 renal) was 229 nM. It also gave a GI50 (MCF7 breast) of 44.6 nM, a TGI (MCF7 breast) of 205 nM and a GI50 (HOP-62 NSCLC) of 69 nM. The TGI (HOP-62 NSCLC) was 263 nM, the GI50 (EKVX NSCLC) was 200 nM and the TGI (EKVX NSCLC) was 911 nM. The GI50 (UACC-257 melanoma) was 23.8 nM, the TGI (UACC-257 melanoma) was 85.3 nM and the GI50 (NCI-H23 lung) was 93.4 nM. It also gave a TGI (NCI-H23 lung) of 334 nM, a GI50 (IGROV1 ovarian) of 65.8 nM and a TGI (IGROV1 ovarian) of 195 nM. The GI50 (U251 glioblastoma) was 50.4 nM, the TGI (U251 glioblastoma) was 170 nM and the GI50 (CAKI-1 renal) was 94.7 nM. It also gave a TGI (CAKI-1 renal) of 222 nM, a GI50 (SNB-19 CNS) of 154 nM and a TGI (SNB-19 CNS) of 299 nM. The GI50 (HCC-2998 colon) was 52.5 nM, the TGI (HCC-2998 colon) was 188 nM and the GI50 (UACC-62 melanoma) was 41.7 nM. For the same molecule, the TGI (UACC-62 melanoma) was 154 nM, the GI50 (PC-3 prostate) was 56.7 nM and the TGI (PC-3 prostate) was 239 nM. The GI50 (HCT-116 colon) was 32 nM, the TGI (HCT-116 colon) was 120 nM and the GI50 (HL-60(TB) leukemia) was 15 nM. It also gave a TGI (HL-60(TB) leukemia) of 28.7 nM.
